Source: PubChem BioAssay (NCI)
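Step 1: Grow cells in 96-well plates. Step 2: Expose to compound for 48 hours at 5 concentrations. Step 3: Interpolate endpoints linearly; if unreached, use highest concentration. GI50 marks 50% less growth. The concentration for full growth arrest is given as TGI.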

Key:
Experiment in all cases: NCI anticancer screen, dose series, 48 h
[1] = tested on: 786-0 renal
[2] = tested on: A498 renal
[3] = tested on: A549 NSCLC
[4] = tested on: ACHN renal
[5] = tested on: BT-549 breast
[6] = tested on: CAKI-1 renal
[7] = tested on: COLO 205 colon
[8] = tested on: DU-145 prostate
[9] = tested on: EKVX NSCLC
[10] = tested on: HCC-2998 colon
[11] = tested on: HCT-116 colon
[12] = tested on: HCT-15 colon
[13] = tested on: HL-60(TB) leukemia
[14] = tested on: HOP-62 NSCLC
[15] = tested on: HOP-92 NSCLC
[16] = tested on: HS 578T breast
[17] = tested on: HT29 colon
[18] = tested on: IGROV1 ovarian
[19] = tested on: K-562 leukemia
[20] = tested on: KM12 colon
[21] = tested on: LOX IMVI melanoma
[22] = tested on: M14 melanoma
[23] = tested on: MALME-3M melanoma
[24] = tested on: MCF7 breast
[25] = tested on: MDA-MB-231 breast
[26] = tested on: MDA-MB-435
[27] = tested on: MOLT-4 leukemia
[28] = tested on: NCI-H226 lung
[29] = tested on: NCI-H23 lung
[30] = tested on: NCI-H460 lung
[31] = tested on: NCI-H522 lung
[32] = tested on: NCI/ADR-RES ovarian
[33] = tested on: OVCAR-3 ovarian
[34] = tested on: OVCAR-4 ovarian
[35] = tested on: OVCAR-5 ovarian
[36] = tested on: OVCAR-8 ovarian
[37] = tested on: PC-3 prostate
[38] = tested on: RPMI-8226 leukemia
[39] = tested on: RXF 393 renal
[40] = tested on: SF-268 CNS
[41] = tested on: SF-295 CNS
[42] = tested on: SF-539 CNS
[43] = tested on: SK-MEL-2 melanoma
[44] = tested on: SK-MEL-28 melanoma
[45] = tested on: SK-MEL-5 melanoma
[46] = tested on: SK-OV-3 ovarian
[47] = tested on: SN12C renal
[48] = tested on: SNB-19 CNS
[49] = tested on: SNB-75 CNS
[50] = tested on: SR leukemia
[51] = tested on: SW-620 colon
[52] = tested on: T-47D breast
[53] = tested on: TK-10 renal
[54] = tested on: U251 CNS
[55] = tested on: UACC-62 melanoma
[56] = tested on: UO-31 renal
[57] = tested on: CCRF-CEM leukemia
[58] = tested on: UACC-257 melanoma

C[C@@H]1C[C@H](C)CN(S(=O)(=O)c2ccc3c(NO)c4ccc(S(=O)(=O)N5C[C@H](C)C[C@H](C)C5)cc4c(N=O)c3c2)C1
GI50 [1]: 0.169 µM
TGI [1]: 0.309 µM
TGI [2]: > 1 µM
GI50 [3]: 0.17 µM
TGI [3]: 0.327 µM
GI50 [4]: 0.143 µM
TGI [4]: 0.293 µM
GI50 [5]: 0.175 µM
TGI [5]: 0.34 µM
GI50 [6]: 0.335 µM
TGI [6]: > 1 µM
GI50 [7]: 0.172 µM
TGI [7]: 0.342 µM
GI50 [8]: 0.115 µM
TGI [8]: 0.268 µM
GI50 [9]: 0.128 µM
TGI [9]: 0.269 µM
GI50 [10]: 0.122 µM
TGI [10]: 0.265 µM
GI50 [11]: 0.032 µM
TGI [11]: 0.115 µM
GI50 [12]: 0.0717 µM
TGI [12]: 0.211 µM
GI50 [13]: 0.185 µM
TGI [13]: 0.448 µM
GI50 [14]: 0.171 µM
TGI [14]: 0.324 µM
GI50 [15]: 0.167 µM
TGI [15]: 0.522 µM
GI50 [16]: 0.161 µM
TGI [16]: 0.422 µM
GI50 [17]: 0.159 µM
TGI [17]: 0.313 µM
GI50 [18]: 0.21 µM
TGI [18]: 0.461 µM
GI50 [19]: 0.0356 µM
TGI [19]: 0.12 µM
GI50 [20]: 0.0833 µM
TGI [20]: 0.257 µM
GI50 [21]: 0.105 µM
TGI [21]: 0.242 µM
GI50 [22]: 0.103 µM
TGI [22]: 0.231 µM
GI50 [23]: 0.14 µM
TGI [23]: 0.293 µM
GI50 [24]: 0.176 µM
TGI [24]: 0.357 µM
GI50 [25]: 0.0738 µM
TGI [25]: 0.234 µM
GI50 [26]: 0.181 µM
TGI [26]: 0.397 µM
GI50 [27]: 0.0478 µM
TGI [27]: 0.194 µM
GI50 [28]: 0.157 µM
TGI [28]: 0.364 µM
GI50 [29]: 0.185 µM
TGI [29]: 0.4 µM
GI50 [30]: 0.0565 µM
TGI [30]: 0.222 µM
GI50 [31]: 0.181 µM
TGI [31]: 0.36 µM
GI50 [32]: 0.302 µM
TGI [32]: > 1 µM
GI50 [33]: 0.182 µM
TGI [33]: 0.328 µM
GI50 [34]: 0.17 µM
TGI [34]: 0.346 µM
GI50 [35]: 0.173 µM
TGI [35]: 0.4 µM
GI50 [36]: 0.232 µM
TGI [36]: 0.527 µM
GI50 [37]: 0.117 µM
TGI [37]: 0.249 µM
GI50 [38]: 0.24 µM
TGI [38]: 0.669 µM
GI50 [39]: 0.158 µM
TGI [39]: 0.299 µM
GI50 [40]: 0.0252 µM
TGI [40]: 0.0698 µM
GI50 [41]: 0.178 µM
TGI [41]: 0.338 µM
GI50 [42]: 0.0564 µM
TGI [42]: 0.207 µM
GI50 [43]: 0.194 µM
TGI [43]: 0.403 µM
GI50 [44]: 0.129 µM
TGI [44]: 0.276 µM
GI50 [45]: 0.25 µM
TGI [45]: 0.687 µM
GI50 [46]: 0.122 µM
TGI [46]: 0.248 µM
GI50 [47]: 0.17 µM
TGI [47]: 0.399 µM
GI50 [48]: 0.164 µM
TGI [48]: 0.353 µM
GI50 [49]: 0.123 µM
TGI [49]: 0.255 µM
GI50 [50]: 0.0367 µM
TGI [50]: 0.215 µM
GI50 [51]: 0.0298 µM
TGI [51]: 0.104 µM
GI50 [52]: 0.178 µM
TGI [52]: 0.362 µM
GI50 [53]: 0.168 µM
TGI [53]: 0.321 µM
GI50 [54]: 0.129 µM
TGI [54]: 0.266 µM
GI50 [55]: 0.181 µM
TGI [55]: 0.345 µM
GI50 [56]: 0.167 µM
TGI [56]: 0.338 µM

CC[C@H](Nc1ncnc2nc[nH]c12)c1nc2cccc(F)c2c(=O)n1-c1ccccc1
GI50 [1]: 4.29 µM
TGI [1]: > 100 µM
GI50 [2]: 1.3 µM
TGI [2]: 13 µM
GI50 [3]: 31.2 µM
TGI [3]: > 100 µM
GI50 [4]: 10.7 µM
TGI [4]: > 100 µM
GI50 [5]: 4.64 µM
TGI [5]: > 100 µM
GI50 [6]: 9.94 µM
TGI [6]: > 100 µM
GI50 [57]: 12.2 µM
TGI [57]: > 100 µM
GI50 [7]: 72.8 µM
TGI [7]: > 100 µM
GI50 [8]: 45.3 µM
TGI [8]: > 100 µM
GI50 [9]: 41.5 µM
TGI [9]: > 100 µM
GI50 [10]: 58.6 µM
TGI [10]: > 100 µM
GI50 [11]: 39.4 µM
TGI [11]: > 100 µM
GI50 [12]: 37.6 µM
TGI [12]: > 100 µM
GI50 [13]: 4.72 µM
TGI [13]: 56.5 µM
GI50 [14]: > 100 µM
TGI [14]: > 100 µM
GI50 [15]: 4.86 µM
TGI [15]: > 60.4 µM
GI50 [16]: 4.12 µM
TGI [16]: > 88.3 µM
GI50 [17]: 30 µM
TGI [17]: > 100 µM
GI50 [18]: 4.09 µM
TGI [18]: 22.7 µM
GI50 [19]: 30.2 µM
TGI [19]: > 100 µM
GI50 [20]: 43.7 µM
TGI [20]: > 100 µM
GI50 [21]: 28 µM
TGI [21]: > 100 µM
GI50 [22]: 40.4 µM
TGI [22]: > 100 µM
GI50 [23]: 17.2 µM
TGI [23]: > 100 µM
GI50 [24]: 8.73 µM
TGI [24]: > 100 µM
GI50 [25]: 29.8 µM
TGI [25]: > 100 µM
GI50 [26]: 19.1 µM
TGI [26]: > 74.6 µM
GI50 [27]: 13.9 µM
TGI [27]: > 87.4 µM
GI50 [28]: > 65.6 µM
TGI [28]: > 100 µM
GI50 [29]: 80.8 µM
TGI [29]: > 100 µM
GI50 [30]: 36.3 µM
TGI [30]: > 100 µM
GI50 [31]: 28.8 µM
TGI [31]: > 100 µM
GI50 [32]: 86.8 µM
TGI [32]: > 100 µM
GI50 [33]: 10.2 µM
TGI [33]: > 100 µM
GI50 [34]: > 100 µM
TGI [34]: > 100 µM
GI50 [35]: 45 µM
TGI [35]: > 100 µM
GI50 [36]: 44.6 µM
TGI [36]: > 100 µM
GI50 [37]: 3.32 µM
TGI [37]: > 100 µM
GI50 [38]: 37.6 µM
TGI [38]: > 100 µM
GI50 [39]: 1.35 µM
TGI [39]: 17.4 µM
GI50 [40]: 19.2 µM
TGI [40]: > 100 µM
GI50 [41]: 5.75 µM
TGI [41]: > 100 µM
GI50 [42]: 19.7 µM
TGI [42]: > 100 µM
GI50 [43]: 48.4 µM
TGI [43]: > 100 µM
GI50 [44]: 13.7 µM
TGI [44]: > 100 µM
GI50 [45]: 26.1 µM
TGI [45]: > 100 µM
GI50 [46]: 16.7 µM
TGI [46]: > 100 µM
GI50 [47]: 7.4 µM
TGI [47]: > 100 µM
GI50 [48]: 39.3 µM
TGI [48]: > 100 µM
GI50 [49]: 0.715 µM
TGI [49]: 16.6 µM
GI50 [51]: 79.7 µM
TGI [51]: > 100 µM
GI50 [52]: 3.76 µM
TGI [52]: > 100 µM
GI50 [53]: 12.5 µM
TGI [53]: > 100 µM
GI50 [54]: 51.2 µM
TGI [54]: > 100 µM
GI50 [58]: 18.9 µM
TGI [58]: > 100 µM
GI50 [55]: 3.52 µM
TGI [55]: > 92.4 µM
GI50 [56]: 3.5 µM
TGI [56]: > 68.7 µM
